Data: patent US12209102B2, “Heterocyclic compounds and uses thereof” (Kumquat Biosciences Inc., priority 2022, dated 2025)

Tests used:
K-Ras WT = target: T1, K-Ras WT (Homo sapiens, UniProt P01116); assay: HTRF resonance energy transfer assay, K-Ras WT / SOS1 interaction; format: biochemical; conditions: HTRF assay of Example 5; read-out: IC50 against K-Ras WT
T1 construct: made in house; host or cells: E. coli BL21 (DE3)
How it was run: (§1)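 Read-out: HTRF 665/620 nm ratio (excitation 337 nm) after roughly 10 min or longer incubation, used to derive IC50. Donor anti-GST-Eu on GST-K-Ras; acceptor anti-6His-XL665 on His-hSOS1. Duplicate dose series from 10 μM down to 0.01 μM.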

K-Ras G12V = target: T2, K-Ras G12V (Homo sapiens, UniProt P01116, G12V); assay: HTRF resonance energy transfer assay, K-Ras G12V / SOS1 interaction; format: biochemical; conditions: HTRF assay of Example 5; read-out: IC50 against K-Ras G12V
T2 construct: made in house; host or cells: E. coli BL21 (DE3)
T2 sequence (P01116 1-188 isoform P01116-2 G12V): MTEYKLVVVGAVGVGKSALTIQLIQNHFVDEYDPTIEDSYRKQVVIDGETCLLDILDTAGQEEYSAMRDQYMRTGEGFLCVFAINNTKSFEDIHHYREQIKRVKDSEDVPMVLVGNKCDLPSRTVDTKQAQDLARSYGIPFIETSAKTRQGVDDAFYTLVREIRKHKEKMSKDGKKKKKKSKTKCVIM
How it was run: as §1

K-Ras G12S = target: T3, K-Ras G12S (Homo sapiens, UniProt P01116, G12S); assay: HTRF resonance energy transfer assay, K-Ras G12S / SOS1 interaction; format: biochemical; conditions: HTRF assay of Example 5; read-out: IC50 against K-Ras G12S
T3 construct: made in house; host or cells: E. coli BL21 (DE3)
T3 sequence (P01116 1-188 isoform P01116-2 G12S): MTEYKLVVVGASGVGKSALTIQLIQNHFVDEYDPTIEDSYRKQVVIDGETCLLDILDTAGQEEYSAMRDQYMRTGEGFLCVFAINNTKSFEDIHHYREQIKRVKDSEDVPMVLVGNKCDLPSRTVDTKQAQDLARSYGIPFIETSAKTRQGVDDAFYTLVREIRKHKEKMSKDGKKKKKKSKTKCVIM
How it was run: as §1

SW620 cells = assay: Ras cellular assay, growth of cells with K-Ras G12V mutation (CellTiter-Glo); format: cell-based; conditions: Homo sapiens, SW-620; cell growth, Example 9, G12V mutation; read-out: IC50 against SW620 cells
How it was run: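 SW620 (K-Ras G12V) cells, e.g. 800/well in RPMI-1640 with 10% heat-inactivated FBS on standard or ultra-low attachment plates, were dosed the day after plating with e.g. a 10-point 3-fold series. Viability by CellTiter-Glo luminescence about 6 days later; IC50 from four-parameter fit.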

GP2D cells = assay: Ras cellular assay, growth of cells with K-Ras G12D mutation (CellTiter-Glo); format: cell-based; conditions: cell growth, Example 9, G12D mutation, read-out: IC50 against GP2D cells
A549 cells = assay: Ras cellular assay, growth of cells with K-Ras G12S mutation (CellTiter-Glo); format: cell-based; conditions: Homo sapiens, cell growth, Example 9, G12S mutation, read-out: IC50 against A549 cells
How it was run: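 A549 cells (K-Ras G12S) in RPMI-1640 with 10% heat-inactivated FBS, seeded e.g. 800 per well in standard or ultra-low-attachment 384-well plates, treated next day with a dilution series (e.g. 10-point, 3-fold). Viability by CellTiter-Glo luminescence about 6 days later; IC50 from four-parameter fit.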

K-Ras G12D = target: T4, K-Ras G12D (Homo sapiens, UniProt P01116, G12D); assay: HTRF resonance energy transfer assay, K-Ras G12D / SOS1 interaction; format: biochemical; conditions: HTRF assay of Example 5; read-out: IC50 against K-Ras G12D
T4 construct: made in house; host or cells: E. coli BL21 (DE3)
T4 sequence (P01116 1-188 isoform P01116-2 G12D): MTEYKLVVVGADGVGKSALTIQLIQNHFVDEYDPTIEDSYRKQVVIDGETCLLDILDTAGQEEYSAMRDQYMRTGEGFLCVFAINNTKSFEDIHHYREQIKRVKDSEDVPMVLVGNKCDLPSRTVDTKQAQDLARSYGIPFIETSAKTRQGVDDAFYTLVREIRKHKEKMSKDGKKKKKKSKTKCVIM
How it was run: as §1

T1 sequence (P01116 1-188 isoform P01116-2): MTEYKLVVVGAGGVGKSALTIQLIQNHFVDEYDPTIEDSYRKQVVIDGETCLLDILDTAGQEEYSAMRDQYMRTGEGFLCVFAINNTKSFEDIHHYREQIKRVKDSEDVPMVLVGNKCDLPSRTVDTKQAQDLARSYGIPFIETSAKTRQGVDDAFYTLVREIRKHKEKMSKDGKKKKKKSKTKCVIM

Row | SMILES | IC50 (K-Ras WT) [nM] | IC50 (K-Ras G12V) [nM] | IC50 (K-Ras G12S) [nM] | IC50 (SW620 cells) [nM] | IC50 (GP2D cells) [nM] | IC50 (A549 cells) [nM] | IC50 (K-Ras G12D) [nM]
1 | CO[C@H](C)C(=O)N1CCC(N2CCOc3c(Cl)c(-c4ccc(F)c5sc(N)c(C#N)c45)c(F)c4nc(OC[C@@]56CCCN5C[C@H](F)C6)nc2c34)C1 (stereo partly drawn) [Compound 1110, 2-amino-4-(8-chloro-10-fluoro-2-(((2R,7aS)-2-fluorotetrahydro-1H-pyrrolizin-7a(5H)-yl)methoxy)-4-(1-((R)-2-methoxypropanoyl)pyrrolidin-3-yl)-5,6-dihydro-4H-[1,4]oxazepino[5,6,7-de]quinazolin-9-yl)-7-fluorobenzo[b]thiophene-3-carbonitrile] | < 100 | < 100 | < 100 | < 5000 | < 500 | < 5000 | < 100
2 | CN1c2nc(OC[C@@]34CCCN3C[C@H](F)C4)nc3c(F)c(-c4ccc(F)c5sc(N)c(C#N)c45)c(Cl)c(c23)OC[C@@H]1CN [Compound 1113, 2-amino-4-((5S)-5-(aminomethyl)-8-chloro-10-fluoro-2-(((2R,7aS)-2-fluorotetrahydro-1H-pyrrolizin-7a(5H)-yl)methoxy)-4-methyl-5,6-dihydro-4H-[1,4]oxazepino[5,6,7-de]quinazolin-9-yl)-7-fluorobenzo[b]thiophene-3-carbonitrile] | < 100 | < 100 | < 100 | < 5000 | < 500 | < 5000 | < 100
3 | N#Cc1c(N)sc2c(F)ccc(-c3c(Cl)c4c5c(nc(OC[C@@]67CCCN6C[C@H](F)C7)nc5c3F)N(C3CCC5(C3)CN(C(=O)CC3COC3)C5)CCO4)c12 (stereo partly drawn) [Compound 1115, 2-amino-4-(8-chloro-10-fluoro-2-(((2R,7aS)-2-fluorotetrahydro-1H-pyrrolizin-7a(5H)-yl)methoxy)-4-(2-(2-(oxetan-3-yl)acetyl)-2-azaspiro[3.4]octan-6-yl)-5,6-dihydro-4H-[1,4]oxazepino[5,6,7-de]quinazolin-9-yl)-7-fluorobenzo[b]thiophene-3-carbonitrile] | < 100 | < 100 | < 100 | < 5000 | < 500 | < 5000 | < 100
4 | CN(C=O)C1CC(N2CCOc3c(Cl)c(-c4ccc(F)c5sc(N)c(C#N)c45)c(F)c4nc(OC[C@@]56CCCN5C[C@H](F)C6)nc2c34)C1 (stereo partly drawn) [Compound 1119, N-(3-(9-(2-amino-3-cyano-7-fluorobenzo[b]thiophen-4-yl)-8-chloro-10-fluoro-2-(((2R,7aS)-2-fluorotetrahydro-1H-pyrrolizin-7a(5H)-yl)methoxy)-5,6-dihydro-4H-[1,4]oxazepino[5,6,7-de]quinazolin-4-yl)cyclobutyl)-N-methylformamide] | < 100 | < 100 | < 100 | < 5000 | < 500 | < 5000 | < 100
5 | N#Cc1c(N)sc2c(F)ccc(-c3c(Cl)c4c5c(nc(OC[C@@]67CCCN6C[C@H](F)C7)nc5c3F)N(C3CCN(C(=O)CC5COC5)C3)CCO4)c12 (stereo partly drawn) [Compound 1126, 2-amino-4-(8-chloro-10-fluoro-2-(((2R,7aS)-2-fluorotetrahydro-1H-pyrrolizin-7a(5H)-yl)methoxy)-4-(1-(2-(oxetan-3-yl)acetyl)pyrrolidin-3-yl)-5,6-dihydro-4H-[1,4]oxazepino[5,6,7-de]quinazolin-9-yl)-7-fluorobenzo[b]thiophene-3-carbonitrile] | < 100 | < 100 | < 100 | < 5000 | < 500 | < 5000 | < 100
6 | CN(CCN1CCOc2c(Cl)c(-c3ccc(F)c4sc(N)c(C#N)c34)c(F)c3nc(OC[C@@]45CCCN4C[C@H](F)C5)nc1c23)C(=O)C(F)F [Compound 1127, N-(2-(9-(2-amino-3-cyano-7-fluorobenzo[b]thiophen-4-yl)-8-chloro-10-fluoro-2-(((2R,7aS)-2-fluorotetrahydro-1H-pyrrolizin-7a(5H)-yl)methoxy)-5,6-dihydro-4H-[1,4]oxazepino[5,6,7-de]quinazolin-4-yl)ethyl)-2,2-difluoro-N-methylacetamide] | < 100 | < 100 | < 100 | < 5000 | < 500 | < 5000 | < 100
7 | C[C@@H]1CN(CC(F)F)c2nc(OC[C@@]34CCCN3C[C@H](F)C4)nc3c(F)c(-c4ccc(F)c5sc(N)c(C#N)c45)c(Cl)c(c23)O1 [Compound 1133, 2-amino-4-((6R)-8-chloro-4-(2,2-difluoroethyl)-10-fluoro-2-(((2R,7aS)-2-fluorotetrahydro-1H-pyrrolizin-7a(5H)-yl)methoxy)-6-methyl-5,6-dihydro-4H-[1,4]oxazepino[5,6,7-de]quinazolin-9-yl)-7-fluorobenzo[b]thiophene-3-carbonitrile] | < 100 | < 100 | < 100 | < 5000 | < 500 | < 5000 | < 100
8 | COCC(=O)N1CCC(N2CCOc3c(Cl)c(-c4ccc(F)c5sc(N)c(C#N)c45)c(F)c4nc(OC[C@@]56CCCN5C[C@H](F)C6)nc2c34)C1 (stereo partly drawn) [Compound 1134, 2-amino-4-(8-chloro-10-fluoro-2-(((2R,7aS)-2-fluorotetrahydro-1H-pyrrolizin-7a(5H)-yl)methoxy)-4-(1-(2-methoxyacetyl)pyrrolidin-3-yl)-5,6-dihydro-4H-[1,4]oxazepino[5,6,7-de]quinazolin-9-yl)-7-fluorobenzo[b]thiophene-3-carbonitrile] | < 100 | < 100 | < 100 | < 5000 | < 500 | < 5000 | < 100
9 | C[C@@H]1CCOc2c(Cl)c(-c3ccc(F)c4sc(N)c(C#N)c34)c(F)c3nc(OC[C@@]45CCCN4C[C@H](F)C5)nc(c23)N1CC(F)F [Compound 1203, 2-amino-4-((R)-9-chloro-4-(2,2-difluoroethyl)-11-fluoro-2-(((2R,7aS)-2-fluorotetrahydro-1H-pyrrolizin-7a(5H)-yl)methoxy)-5-methyl-4,5,6,7-tetrahydro-[1,5]oxazocino[4,3,2-de]quinazolin-10-yl)-7-fluorobenzo[b]thiophene-3-carbonitrile] | < 100 | < 100 | < 100 | < 5000 | < 500 | < 5000 | < 100
10 | N#Cc1c(N)sc2c(F)ccc(-c3c(Cl)c4c5c(nc(OC[C@@]67CCCN6C[C@H](F)C7)nc5c3F)N(CCC(F)F)CCCO4)c12 [Compound 1212, 2-amino-4-(9-chloro-4-(3,3-difluoropropyl)-11-fluoro-2-(((2R,7aS)-2-fluorotetrahydro-1H-pyrrolizin-7a(5H)-yl)methoxy)-4,5,6,7-tetrahydro-[1,5]oxazocino[4,3,2-de]quinazolin-10-yl)-7-fluorobenzo[b]thiophene-3-carbonitrile] | < 100 | < 100 | < 100 | < 5000 | < 500 | < 5000 | < 100
11 | N#Cc1c(N)sc2c(F)ccc(-c3c(Cl)c4c5c(nc(OC[C@@]67CCCN6C[C@H](F)C7)nc5c3F)N(CC(F)F)CCCO4)c12 [Compound 1218, 2-amino-4-(9-chloro-4-(2,2-difluoroethyl)-11-fluoro-2-(((2R,7aS)-2-fluorotetrahydro-1H-pyrrolizin-7a(5H)-yl)methoxy)-4,5,6,7-tetrahydro-[1,5]oxazocino[4,3,2-de]quinazolin-10-yl)-7-fluorobenzo[b]thiophene-3-carbonitrile] | < 100 | < 100 | < 100 | < 5000 | < 500 | < 5000 | < 100
12 | N#Cc1c(N)sc2c(F)ccc(-c3c(Cl)c4c5c(nc(OC[C@@]67CCCN6C[C@H](F)C7)nc5c3F)N(C3CCOC3)CC(O)CO4)c12 (stereo partly drawn) [Compound 1225, 2-amino-4-(9-chloro-11-fluoro-2-(((2R,7aS)-2-fluorotetrahydro-1H-pyrrolizin-7a(5H)-yl)methoxy)-6-hydroxy-4-(tetrahydrofuran-3-yl)-4,5,6,7-tetrahydro-[1,5]oxazocino[4,3,2-de]quinazolin-10-yl)-7-fluorobenzo[b]thiophene-3-carbonitrile] | < 100 | < 100 | < 100 | < 5000 | < 500 | < 5000 | < 100
